The nature of data set [1]: Metabolic stability in human liver microsomes assessed as clearance. Type of data set: ADME, Microsome.
A short description of data set [2]: AUC (0-infinity) in Sprague-Dawley rat at 1 mg/kg, iv. Conditions: plasma. Type of data set: ADME, organism-based. Further details: time infinity, dose 1 mg/kg, route intravenous.
Data set [3] is described as follows: Clearance in Sprague-Dawley rat at 1 mg/kg, iv. Type of data set: ADME, organism-based. Further details: dose 1 mg/kg, route intravenous. Conditions: in vivo.
In data set [4] the target is T1, Transient receptor potential cation channel subfamily V member 1 (Homo sapiens, UniProt Q8NER1). Description: Antagonist activity at human TRPV1 expressed in CHO cells assessed as inhibition of heat-induced calcium influx. Type of data set: functional, cell-based.
T1 sequence (Q8NER1 whole entry): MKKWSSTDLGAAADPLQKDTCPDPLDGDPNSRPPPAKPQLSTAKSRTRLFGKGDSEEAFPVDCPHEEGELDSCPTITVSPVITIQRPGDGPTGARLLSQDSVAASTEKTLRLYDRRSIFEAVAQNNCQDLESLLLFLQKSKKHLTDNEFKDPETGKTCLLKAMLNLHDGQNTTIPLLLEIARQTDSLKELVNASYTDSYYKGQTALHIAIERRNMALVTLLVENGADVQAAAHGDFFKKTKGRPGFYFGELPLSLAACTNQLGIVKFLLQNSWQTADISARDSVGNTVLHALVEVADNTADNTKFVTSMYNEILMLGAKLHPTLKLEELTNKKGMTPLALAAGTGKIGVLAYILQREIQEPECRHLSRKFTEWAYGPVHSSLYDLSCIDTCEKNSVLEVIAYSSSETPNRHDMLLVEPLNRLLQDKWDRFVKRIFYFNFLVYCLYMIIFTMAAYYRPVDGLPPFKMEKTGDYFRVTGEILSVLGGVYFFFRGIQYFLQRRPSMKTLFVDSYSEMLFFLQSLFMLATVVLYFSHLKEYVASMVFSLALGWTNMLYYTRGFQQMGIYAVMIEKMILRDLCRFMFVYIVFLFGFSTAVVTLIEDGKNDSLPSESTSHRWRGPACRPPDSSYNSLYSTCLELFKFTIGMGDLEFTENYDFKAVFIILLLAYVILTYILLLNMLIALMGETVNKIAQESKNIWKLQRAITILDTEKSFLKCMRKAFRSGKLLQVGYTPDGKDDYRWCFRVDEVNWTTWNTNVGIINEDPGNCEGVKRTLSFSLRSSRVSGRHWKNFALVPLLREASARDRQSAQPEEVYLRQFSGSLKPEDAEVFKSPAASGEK
The nature of data set [5]: Bioavailability in fasted Sprague-Dawley rat at 5 mg/kg, po. Type of data set: ADME, organism-based. Conditions: in vivo.
The nature of data set [6]: Volume of distribution at steady state in Sprague-Dawley rat at 1 mg/kg, iv. The data set is classed as ADME, organism-based. Further details: dose 1 mg/kg, route intravenous. Conditions: in vivo, read-out: Vss.
Data set [7] concerns the target T1, Transient receptor potential cation channel subfamily V member 1. Description: Antagonist activity at human TRPV1 expressed in CHO cells assessed as inhibition of capsaicin-induced calcium influx. Type of data set: functional, cell-based.
Data set [8] has the same target. The data set is described as follows: Antagonist activity at human TRPV1 expressed in CHO cells assessed as inhibition of acid-induced calcium influx. The data set is classed as functional, cell-based.
A short description of data set [9]: Aqueous solubility in hydrochloric acid by high-throughput automated format. Type of data set: physicochemical.
Data set [10] can be described thus: Solubility in PBS by high-throughput automated format. The data set is classed as physicochemical.
Data set [11] is described as follows: Half life in Sprague-Dawley rat at 1 mg/kg, iv. More on the design: dose 1 mg/kg, route intravenous. Conditions: in vivo. Type of data set: ADME, organism-based.
Data set [12] is described as follows: Solubility in simulated intestinal fluid by high-throughput automated format. Type of data set: physicochemical.
Data set [13] in a line: Metabolic stability in rat liver microsomes assessed as clearance. The data set is classed as ADME, Microsome.
Data set [14] can be described thus: In vivo clearance in Sprague-Dawley rat at 1 mg/kg, iv. The data set is classed as ADME, organism-based. Further details: dose 1 mg/kg, route intravenous.
In data set [15] the target is T2, Transient receptor potential cation channel subfamily V member 1 (Rattus norvegicus, UniProt O35433). Description: Antagonist activity at rat TRPV1 expressed in CHO cells assessed as inhibition of acid-induced calcium influx. Type of data set: functional, cell-based.
T2 sequence (O35433 whole entry): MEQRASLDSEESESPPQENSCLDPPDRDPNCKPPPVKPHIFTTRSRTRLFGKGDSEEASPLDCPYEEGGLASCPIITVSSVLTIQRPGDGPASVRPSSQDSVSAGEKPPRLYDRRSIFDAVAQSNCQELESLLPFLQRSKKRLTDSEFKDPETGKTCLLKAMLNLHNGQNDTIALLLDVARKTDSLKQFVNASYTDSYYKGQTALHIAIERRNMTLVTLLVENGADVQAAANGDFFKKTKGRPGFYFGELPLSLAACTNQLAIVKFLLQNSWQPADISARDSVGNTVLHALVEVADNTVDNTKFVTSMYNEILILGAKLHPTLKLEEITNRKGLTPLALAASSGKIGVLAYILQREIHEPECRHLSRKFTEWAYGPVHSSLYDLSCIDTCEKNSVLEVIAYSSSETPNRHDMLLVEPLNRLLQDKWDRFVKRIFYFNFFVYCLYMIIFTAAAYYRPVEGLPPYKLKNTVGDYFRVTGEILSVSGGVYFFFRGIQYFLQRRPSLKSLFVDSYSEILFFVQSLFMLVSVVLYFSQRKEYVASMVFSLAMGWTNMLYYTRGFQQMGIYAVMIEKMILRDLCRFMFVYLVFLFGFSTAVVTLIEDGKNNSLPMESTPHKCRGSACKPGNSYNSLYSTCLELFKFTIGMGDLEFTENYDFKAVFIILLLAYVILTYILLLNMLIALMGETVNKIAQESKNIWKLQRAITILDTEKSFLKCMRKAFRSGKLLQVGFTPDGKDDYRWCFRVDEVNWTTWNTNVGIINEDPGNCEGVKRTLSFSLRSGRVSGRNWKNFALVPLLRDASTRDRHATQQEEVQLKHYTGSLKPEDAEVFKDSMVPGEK
Data set [16] addresses T2, Transient receptor potential cation channel subfamily V member 1. The data set is described as follows: Antagonist activity at rat TRPV1 expressed in CHO cells assessed as inhibition of capsaicin-induced calcium influx. The data set is classed as functional, cell-based.
A short description of data set [17]: Half life in rat. The data set is classed as ADME, organism-based. Conditions: in vivo.
The subject of data set [18] is Rattus norvegicus. The data set is described as follows: Blockade of capsaicin-induced hypothermia in rat at 3 mg/kg, po by telemetry model. The data set is classed as functional.
Data set [19] can be described thus: Bioavailability in monkey at 1 mg/kg, po. Type of data set: ADME, organism-based, Macaca mulatta. Conditions: rhesus monkey, in vivo.
Data set [20] in a line: Clearance in dog at 1 mg/kg, iv. Conditions: in vivo. Type of data set: ADME, organism-based, Canis lupus familiaris. More on the design: dose 1 mg/kg, route intravenous.
Data set [21] can be described thus: Bioavailability in dog at 1 mg/kg, po. Type of data set: ADME, organism-based, Canis lupus familiaris. Conditions: in vivo.
Data set [22] can be described thus: AUC (0 to infinity) in rat at 1 mg/kg, iv. Conditions: plasma. Type of data set: ADME, organism-based. Further details: time infinity, dose 1 mg/kg, route intravenous.
Data set [23] can be described thus: AUC (0-infinity) in monkey at 1 mg/kg, iv. Type of data set: ADME, organism-based, Macaca mulatta. More on the design: time infinity, dose 1 mg/kg, route intravenous. Conditions: rhesus monkey, plasma.
Data set [24] deals with Rattus norvegicus. The data set is described as follows: Efficacy in capsaicin-induced flinching in po dosed Sprague-Dawley rat. The data set is classed as functional.
Data set [25] is described as follows: Bioavailability in rat at 1 mg/kg, po. Conditions: in vivo. The data set is classed as ADME, organism-based.
Data set [26] in a line: Half life in dog at 1 mg/kg, iv. Conditions: in vivo. Type of data set: ADME, organism-based, Canis lupus familiaris. Further details: dose 1 mg/kg, route intravenous.
Data set [27] can be described thus: Clearance in rat at 1 mg/kg, iv. The data set is classed as ADME, organism-based. More on the design: dose 1 mg/kg, route intravenous. Conditions: in vivo.
Data set [28] is described as follows: Bioavailability in fasted Sprague-Dawley rat at 3 mg/kg, po. Conditions: in vivo. The data set is classed as ADME, organism-based.
Data set [29] has as its system Rattus norvegicus. Description: Inhibition of CFA-induced paw thermal hyperalgesia in po dosed Sprague-Dawley rat. The data set is classed as functional. Conditions: read-out: MED.
Data set [30] can be described thus: Volume of distribution at steady state at 1 mg/kg, iv. Type of data set: ADME, organism-based. More on the design: dose 1 mg/kg, route intravenous. Conditions: rat, in vivo, read-out: Vss.
The nature of data set [31]: AUC (0-infinity) in dog at 1 mg/kg, iv. Type of data set: ADME, organism-based, Canis lupus familiaris. Further details: dose 1 mg/kg, route intravenous, time infinity. Conditions: plasma.
Data set [32] relates to Rattus norvegicus. Description: Inhibition of capsaicin-induced flinching in Sprague-Dawley rat at 3 mg/kg, po upto 24 hrs. Type of data set: functional, organism-based. Further details: dose 3 mg/kg.
The nature of data set [33]: Half life in rat at 1 mg/kg, iv. Type of data set: ADME, organism-based. Further details: dose 1 mg/kg, route intravenous. Conditions: in vivo.
Data set [34] has as its system Rattus norvegicus. The data set is described as follows: Inhibition of CFA-induced paw thermal hyperalgesia in Sprague-Dawley rat at 10 mg/kg, po relative to control. The data set is classed as functional. Further details: scale not given: the % may be the effect or the level left.
Data set [35] in a line: Half life in monkey at 1 mg/kg, iv. The data set is classed as ADME, organism-based, Macaca mulatta. Further details: dose 1 mg/kg, route intravenous. Conditions: rhesus monkey, in vivo.
A short description of data set [36]: Volume of distribution at steady state in monkey at 1 mg/kg, iv. Conditions: rhesus monkey, in vivo, read-out: Vss. Type of data set: ADME, organism-based, Macaca mulatta. More on the design: dose 1 mg/kg, route intravenous.
Data set [37] in a line: Volume of distribution at steady state in dog at 1 mg/kg, iv. The data set is classed as ADME, organism-based, Canis lupus familiaris. More on the design: dose 1 mg/kg, route intravenous. Conditions: in vivo, read-out: Vss.
Data set [38] is described as follows: Clearance in monkey at 1 mg/kg, iv. Type of data set: ADME, organism-based, Macaca mulatta. More on the design: dose 1 mg/kg, route intravenous. Conditions: rhesus monkey, in vivo.

≈ marks a conversion by molar mass, not a printed value. Calls of active or inactive are those of the source. No cut-off for these calls is given here.

As for `Nc1nc2c(Oc3cc(-c4ccc(C(F)(F)F)cc4)ncn3)cccc2[nH]c1=O`, the microsomal CLint in [1] and in data set [13] was < 14 µL/min/mg in each case. In [2], this compound showed an AUC(0-inf) of 5140 ng·h/mL. The clearance was 3.28 mL/min/kg in data set [3] and 4.33 mL/min/kg in data set [14]. Also, the IC50 in [4] is 0.4 nM; in [7] it was 0.8 nM; in data set [8], 0.9 nM. The compound also displayed a bioavailability in data set [5] of 7%. Further, in data set [6], the Vd amounted to 1.69 L/kg. Besides, the solubility is < 1 µg/mL in data set [9], < 1 µg/mL in [10] and 9.2 µg/mL (≈ 23 µM) in [12]. In addition, the half-life in [11] was 6 h.

As to `FC(F)(F)c1ccc(-c2cc(Oc3ccc4ccncc4c3)ncn2)cc1`, the IC50 in data set [15] is > 4000 nM; in [16] it was 460 nM.

Regarding `FC(F)(F)c1ccc(-c2cc(Oc3ccc4cccnc4c3)ncn2)cc1`, the half-life in data set [17] was 2.8 h.

As for `Nc1cnc2cccc(Oc3cc(-c4ccc(C(F)(F)F)cc4)ncn3)c2n1`, the microsomal CLint is < 14 µL/min/mg in data set [1] and 15 µL/min/mg in data set [13]. The half-inhibitory concentration (IC50) was determined as 16 nM in data set [15] and 63 nM in data set [16]. In addition, in [18], the Activity is 100%. For the same compound, in data set [14], the clearance is 71.7 mL/min/kg.

In the case of `O=c1ccc2cccc(Oc3cc(-c4ccc(C(F)(F)F)cc4)ncn3)c2[nH]1`, the IC50 in data set [15] and in data set [16] was > 4000 nM each time.

In the case of `CCC(=O)Nc1nc2c(Oc3cc(-c4ccc(C(F)(F)F)cc4)ncn3)cccc2s1`, the IC50 in [15] came to 1500 nM.

Turning to `FC(F)(F)c1ccc(-c2cc(Oc3ccnc4ccccc34)ncn2)cc1`, the IC50 in data set [15] and in data set [16] was > 4000 nM each time.

For the compound `CC(=O)N(C)c1nc2c(Oc3cc(-c4ccc(C(F)(F)F)cc4)ncn3)cccc2s1`, the half-inhibitory concentration (IC50) was 860 nM in data set [15] and > 4000 nM in [16].

On to `FC(F)(F)c1ccc(-c2cc(Oc3ccc4ccccc4n3)ncn2)cc1`, for which the IC50 in data set [15] was > 4000 nM.

In the case of `Nc1nc2c(Oc3cc(-c4ccc(C(F)(F)F)cc4)ncn3)cccc2s1`, the results for the intrinsic metabolic clearance (microsomal CLint) in data set [1] and in [13] were < 5 µL/min/mg and 47 µL/min/mg, respectively. Besides, the 50% inhibitory concentration (IC50) was > 4000 nM in [15] and 1.2 nM in data set [16]. For the same compound, the clearance in [14] was 3.67 mL/min/kg.

Take `CC(=O)Nc1nc2c(Oc3cc(-c4ccc(C(F)(F)F)cc4)ncn3)cccc2s1` [AMG-517]: the results for the microsomal CLint in data set [1] and in data set [13] were < 5 µL/min/mg and 50 µL/min/mg, respectively. In addition, the bioavailability worked out at 52% in data set [19], 23% in data set [21], 51% in data set [25] and 32% in data set [28]. In addition, the AUC(0-inf) is 5400 ng·h/mL in data set [2], 8800 ng·h/mL in data set [22], 37000 ng·h/mL in data set [23] and 7400 ng·h/mL in [31]. Further, the clearance in data set [3] is 3.17 mL/min/kg; in data set [20] it was 2.33 mL/min/kg; in [27] it was 2 mL/min/kg; in data set [38], 0.5 mL/min/kg; in data set [14], 4.17 mL/min/kg. Besides, the IC50 in [4] is 1.3 nM; in data set [7] it was 0.76 nM; in [8], 0.62 nM. In addition, the Vd in data set [6] turned out to be 1.56 L/kg; in [30], 4 L/kg; in data set [36], 2.3 L/kg; in data set [37] it was 7 L/kg. The compound further returned an ED50 in [24] of 0.35 mg/kg. Besides, the solubility was < 1 µg/mL in data set [9], < 1 µg/mL in data set [10] and 6.6 µg/mL (≈ 15.3 µM) in data set [12]. Besides, the half-life was 6.3 h in [11], 41 h in data set [26], 31 h in data set [33] and 62 h in [35]. In addition, in [29], the minimal effective dose amounted to 0.83 mg/kg. The outcome in data set [32] was Active. In addition, the Activity in data set [34] is 35%.

These data come from ChEMBL document CHEMBL1145459, “Novel vanilloid receptor-1 antagonists: 2. Structure-activity relationships of 4-oxopyrimidines leading to the selection of a clinical candidate” (J Med Chem, 2007).
